Results as given in patent US20190328691A1, “ANTIBIOTIC THERAPY” (Boulos & Cooper Pharmaceuticals Pty Ltd, priority 2015, published 2019).
Like-named read-outs stand apart in the source and are kept apart here. Values belong to the compound of their own block, whether it stands above or below them.

Key:
[1] = test system: Staphylococcus aureus (ATCC 29213); experiment: Checkerboard combination / MIC assay with S. aureus ATCC 29213; format: cell-based; settings: S. aureus ATCC 29213; for MIC: Staphylococcus aureus, read-out: MIC of antibiotic alone; for mean FICI of combination with Chlopam / mean FICI of combination with Ramizol: mean of all pairwise combinations; for mean FICI of combination with Ramizol: labelled antibiotic + Ramizol
How it was run: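 CLSI broth microdilution checkerboard in CAMHB, final inoculum 5×10^5 CFU/mL, 2% DMSO. Ramizol or Chlopam (11-point 2-fold) crossed with commercial antibiotics (7-point), each starting at 4× MIC; synergy assessed by FIC index (sum of MIC-in-combination/MIC-alone ratios; ≤0.5 synergy, >4 antagonism).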

[2] = test system: Staphylococcus aureus (BAA-1717); experiment: Checkerboard combination / MIC assay with S. aureus BAA-1717 (MRSA); format: cell-based; settings: for Effect of individual antibiotic combinations: S. aureus BAA-1717; for MIC: Staphylococcus aureus, ATCC BAA-1717 / BAA-1717, Table 4, checkerboard series with Chlopam, read-out: MIC of antibiotic alone; for mean FICI of combination with Chlopam: labelled antibiotic + Chlopam; for mean FICI of combination with Chlopam / mean FICI of combination with Ramizol: mean of all pairwise combinations; for mean FICI of combination with Ramizol: labelled antibiotic + Ramizol
How it was run: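 CLSI broth microdilution checkerboard in CAMHB (5×10^5 CFU/mL, 2% DMSO final). Ramizol or Chlopam was tested in 11-point two-fold series against 7-point antibiotic titrations, starting at 4× MIC.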

[3] = Chlopam 0.003906 μg/mL + labelled antibiotic at MIC of same cell
[4] = Chlopam 0.0078125 μg/mL + labelled antibiotic at MIC of same cell
[5] = Chlopam 0.015625 μg/mL + labelled antibiotic at MIC of same cell
[6] = Chlopam 0.25 μg/mL + labelled antibiotic at MIC of same cell
[7] = Ramizol 0.015625 μg/mL + labelled antibiotic at MIC of same cell
[8] = Ramizol 0.03125 μg/mL + labelled antibiotic at MIC of same cell
[9] = Ramizol 0.0625 μg/mL + labelled antibiotic at MIC of same cell
[10] = Ramizol 0.125 μg/mL + labelled antibiotic at MIC of same cell
[11] = Ramizol 0.25 μg/mL + labelled antibiotic at MIC of same cell
[12] = ATCC29213, Table 4, checkerboard series with Chlopam
[13] = ATCC29213, Table 7, checkerboard series with Ramizol
[14] = Chlopam 0.001953 μg/mL + labelled antibiotic at MIC of same cell, S. aureus ATCC BAA-1717
[15] = Chlopam 0.001953 μg/mL, S. aureus ATCC BAA-1717
[16] = Chlopam 0.003906 μg/mL + labelled antibiotic at MIC of same cell, S. aureus ATCC BAA-1717
[17] = Chlopam 0.003906 μg/mL, S. aureus ATCC BAA-1717
[18] = Chlopam 0.0078125 μg/mL + labelled antibiotic at MIC of same cell, S. aureus ATCC BAA-1717
[19] = Chlopam 0.0078125 μg/mL, S. aureus ATCC BAA-1717
[20] = Chlopam 0.015625 μg/mL + labelled antibiotic at MIC of same cell, S. aureus ATCC BAA-1717
[21] = Chlopam 0.015625 μg/mL, S. aureus ATCC BAA-1717
[22] = Ramizol 0.015625 μg/mL + labelled antibiotic at MIC of same cell, S. aureus ATCC BAA-1717
[23] = Ramizol 0.015625 μg/mL, S. aureus ATCC BAA-1717
[24] = Ramizol 0.03125 μg/mL + labelled antibiotic at MIC of same cell, S. aureus ATCC BAA-1717
[25] = Ramizol 0.03125 μg/mL, S. aureus ATCC BAA-1717
[26] = Ramizol 0.0625 μg/mL + labelled antibiotic at MIC of same cell, S. aureus ATCC BAA-1717
[27] = Ramizol 0.0625 μg/mL, S. aureus ATCC BAA-1717
[28] = Ramizol 0.125 μg/mL + labelled antibiotic at MIC of same line, S. aureus ATCC BAA-1717
[29] = Ramizol 0.125 μg/mL, S. aureus ATCC BAA-1717

MIC of antibiotic in combination with Chlopam ([1]; Chlopam 0.003906 μg/mL): 2 µg/mL
MIC of antibiotic in combination with Chlopam ([1]; Chlopam 0.0078125 μg/mL): 2 µg/mL
MIC of antibiotic in combination with Chlopam ([1]; Chlopam 0.015625 μg/mL): 2 µg/mL
MIC of antibiotic in combination with Chlopam ([1]; Chlopam 0.125 μg/mL): 1 µg/mL
MIC of antibiotic in combination with Chlopam ([1]; Chlopam 0.25 μg/mL): 0.5 µg/mL
MIC of antibiotic in combination with Chlopam ([1]; Chlopam 0.5 μg/mL): 0.25 µg/mL
MIC of antibiotic in combination with Ramizol ([1]; Ramizol 0.015625 μg/mL): 4 µg/mL
MIC of antibiotic in combination with Ramizol ([1]; Ramizol 0.03125 μg/mL): 4 µg/mL
MIC of antibiotic in combination with Ramizol ([1]; Ramizol 0.0625 μg/mL): 4 µg/mL
MIC of antibiotic in combination with Ramizol ([1]; Ramizol 0.125 μg/mL): 4 µg/mL
MIC of antibiotic in combination with Ramizol ([1]; Ramizol 0.25 μg/mL): 4 µg/mL
MIC [1, 12]: 2 µg/mL
MIC [1, 13]: 4 µg/mL
MIC of antibiotic in combination with Chlopam [2, 15]: 1 µg/mL
MIC of antibiotic in combination with Chlopam [2, 17]: 1 µg/mL
MIC of antibiotic in combination with Chlopam [2, 19]: 1 µg/mL
MIC of antibiotic in combination with Chlopam [2, 21]: 1 µg/mL
MIC of antibiotic in combination with Ramizol [2, 23]: 1 µg/mL
MIC of antibiotic in combination with Ramizol [2, 25]: 1 µg/mL
MIC of antibiotic in combination with Ramizol [2, 27]: 1 µg/mL
MIC of antibiotic in combination with Ramizol [2, 29]: 1 µg/mL
MIC ([2]; S. aureus ATCC BAA-1717): 1 µg/mL
MIC of antibiotic alone ([2]; Table 7, checkerboard series with Ramizol, S. aureus ATCC BAA-1717): 1 µg/mL
Structure (SMILES): CC(=O)NC[C@H]1CN(c2ccc(N3CCOCC3)c(F)c2)C(=O)O1 [Linezolid]
FICI of combination with Chlopam [1, 3]: 1.0
FICI of combination with Chlopam [1, 4]: 1.0
FICI of combination with Chlopam [1, 5]: 1.0
FICI of combination with Chlopam ([1]; Chlopam 0.125 μg/mL + labelled antibiotic at MIC of same line): 0.8
FICI of combination with Chlopam [1, 6]: 0.8
FICI of combination with Chlopam ([1]; Chlopam 0.5 μg/mL + labelled antibiotic at MIC of same cell): 0.6
Effect of individual antibiotic combinations ([1]; Chlopam and Linezolid: 0.003901 and 2, 0.0078125 and 2, 0.015625 and 2, 0.125 and 1, 0.25 and 0.5, 0.5 and 0.25 μg/mL): additive effect
FICI of combination with Ramizol [1, 7]: 1.0
FICI of combination with Ramizol [1, 8]: 1.0
FICI of combination with Ramizol [1, 9]: 1.0
FICI of combination with Ramizol [1, 10]: 1.0
FICI of combination with Ramizol [1, 11]: 1.0
Effect of individual antibiotic combinations ([1]; Ramizol and linezolid: 0.015625 and 4, 0.03125 and 4, 0.0625 and 4, 0.125 and 4, 0.25 and 4 μg/mL): additive effect
Effect of the combinations with Chlopam (by mean FICI) ([1]; labelled antibiotic + Chlopam): additive effect
mean FICI of combination with Chlopam ([1]; labelled antibiotic + Chlopam): 0.9
mean FICI of combination with Ramizol [1]: 1.1
FICI of combination with Chlopam [2, 14]: 1.0
FICI of combination with Chlopam [2, 16]: 1.0
FICI of combination with Chlopam [2, 18]: 1.0
FICI of combination with Chlopam [2, 20]: 1.0
Effect of individual antibiotic combinations ([2]; Chlopam and Linezolid: 0.001953 and 1, 0.003901 and 1, 0.0078125 and 1, 0.015625 and 1 μg/mL): additive effect
FICI of combination with Ramizol [2, 22]: 1.0
FICI of combination with Ramizol [2, 24]: 1.0
FICI of combination with Ramizol [2, 26]: 1.0
FICI of combination with Ramizol [2, 28]: 1.0
Effect of individual antibiotic combinations ([2]; Ramizol and linezolid: 0.015625 and 1, 0.03125 and 1, 0.0625 and 1, 0.125 and 1 μg/mL): additive effect
mean FICI of combination with Chlopam ([2]; S. aureus ATCC BAA-1717): 1.2
mean FICI of combination with Ramizol ([2]; S. aureus ATCC BAA-1717): 1.2

MIC of antibiotic in combination with Chlopam ([1]; Chlopam 0.003906 μg/mL): 0.5 µg/mL
MIC of antibiotic in combination with Chlopam ([1]; Chlopam 0.0078125 μg/mL): 0.5 µg/mL
MIC of antibiotic in combination with Chlopam ([1]; Chlopam 0.015625 μg/mL): 0.5 µg/mL
MIC of antibiotic in combination with Chlopam ([1]; Chlopam 0.25 μg/mL): 0.25 µg/mL
MIC of antibiotic in combination with Ramizol ([1]; Ramizol 0.015625 μg/mL): 0.5 µg/mL
MIC of antibiotic in combination with Ramizol ([1]; Ramizol 0.03125 μg/mL): 0.5 µg/mL
MIC of antibiotic in combination with Ramizol ([1]; Ramizol 0.0625 μg/mL): 0.5 µg/mL
MIC of antibiotic in combination with Ramizol ([1]; Ramizol 0.125 μg/mL): 0.5 µg/mL
MIC of antibiotic in combination with Ramizol ([1]; Ramizol 0.25 μg/mL): 0.5 µg/mL
MIC [1, 12]: 0.5 µg/mL
MIC [1, 13]: 0.5 µg/mL
MIC of antibiotic in combination with Chlopam [2, 15]: 0.5 µg/mL
MIC of antibiotic in combination with Chlopam [2, 17]: 0.5 µg/mL
MIC of antibiotic in combination with Chlopam [2, 19]: 0.5 µg/mL
MIC of antibiotic in combination with Chlopam [2, 21]: 0.5 µg/mL
MIC of antibiotic in combination with Chlopam ([2]; Chlopam 0.5 μg/mL, S. aureus ATCC BAA-1717): 0.016 µg/mL
MIC of antibiotic in combination with Ramizol [2, 23]: 0.5 µg/mL
MIC of antibiotic in combination with Ramizol [2, 25]: 0.5 µg/mL
MIC of antibiotic in combination with Ramizol [2, 27]: 0.5 µg/mL
MIC of antibiotic in combination with Ramizol [2, 29]: 0.5 µg/mL
MIC of antibiotic in combination with Ramizol ([2]; Ramizol 4 μg/mL, S. aureus ATCC BAA-1717): 0.016 µg/mL
MIC ([2]; S. aureus ATCC BAA-1717): 0.5 µg/mL
Structure (SMILES): C/C(=C\C(=O)OCCCCCCCCC(=O)O)C[C@@H]1OC[C@H](C[C@@H]2O[C@H]2[C@@H](C)[C@H](C)O)[C@@H](O)[C@H]1O [Mupirocin]
FICI of combination with Chlopam [1, 3]: 1.0
FICI of combination with Chlopam [1, 4]: 1.0
FICI of combination with Chlopam [1, 5]: 1.0
FICI of combination with Chlopam [1, 6]: 1.0
Effect of individual antibiotic combinations ([1]; Chlopam and mupirocin: 0.003901 and 0.5, 0.0078125 and 0.5, 0.015625 and 0.5, 0.25 and 0.25 μg/mL): additive effect
FICI of combination with Ramizol [1, 7]: 1.0
FICI of combination with Ramizol [1, 8]: 1.0
FICI of combination with Ramizol [1, 9]: 1.0
FICI of combination with Ramizol [1, 10]: 1.0
FICI of combination with Ramizol [1, 11]: 1.0
Effect of individual antibiotic combinations ([1]; Ramizol and mupirocin: 0.015625 and 0.5, 0.03125 and 0.5, 0.0625 and 0.5, 0.125 and 0.5, 0.25 and 0.5 μg/mL): additive effect
mean FICI of combination with Chlopam ([1]; labelled antibiotic + Chlopam): 1.1
mean FICI of combination with Ramizol [1]: 1.1
FICI of combination with Chlopam [2, 14]: 1.0
FICI of combination with Chlopam [2, 16]: 1.0
FICI of combination with Chlopam [2, 18]: 1.0
FICI of combination with Chlopam [2, 20]: 1.0
FICI of combination with Chlopam ([2]; Chlopam 0.5 μg/mL + labelled antibiotic at MIC of same line, S. aureus ATCC BAA-1717): 1.0
Effect of individual antibiotic combinations ([2]; Chlopam and mupirocin: 0.001953 and 0.5, 0.003901 and 0.5, 0.0078125 and 0.5, 0.015625 and 0.5, 0.5 and 0.016 μg/mL): additive effect
FICI of combination with Ramizol [2, 22]: 1.0
FICI of combination with Ramizol [2, 24]: 1.0
FICI of combination with Ramizol [2, 26]: 1.0
FICI of combination with Ramizol [2, 28]: 1.0
FICI of combination with Ramizol ([2]; Ramizol 4 μg/mL + labelled antibiotic at MIC of same cell, S. aureus ATCC BAA-1717): 1.0
Effect of individual antibiotic combinations ([2]; Ramizol and mupirocin: 0.015625 and 0.5, 0.03125 and 0.5, 0.0625 and 0.5, 0.125 and 0.5, 4 and 0.016 μg/mL): additive effect
mean FICI of combination with Chlopam ([2]; S. aureus ATCC BAA-1717): 1.2
mean FICI of combination with Ramizol ([2]; S. aureus ATCC BAA-1717): (1.2)
